From US20140137294A1, “GLUCOSINOLATE TRANSPORTER PROTEIN AND USES THEREOF” (UNIVERSITY OF COPENHAGEN, priority 2010, published 2014) come the findings set out here.

The target of this assay is T1, AtGTR2 (Arabidopsis thaliana, UniProt Q9LV10).
T1 construct: expressed in transfected cells; host or cells: Xenopus oocytes injected with in vitro transcribed cRNA (vector pNB1u)
T1 sequence (Q9LV10 1-616): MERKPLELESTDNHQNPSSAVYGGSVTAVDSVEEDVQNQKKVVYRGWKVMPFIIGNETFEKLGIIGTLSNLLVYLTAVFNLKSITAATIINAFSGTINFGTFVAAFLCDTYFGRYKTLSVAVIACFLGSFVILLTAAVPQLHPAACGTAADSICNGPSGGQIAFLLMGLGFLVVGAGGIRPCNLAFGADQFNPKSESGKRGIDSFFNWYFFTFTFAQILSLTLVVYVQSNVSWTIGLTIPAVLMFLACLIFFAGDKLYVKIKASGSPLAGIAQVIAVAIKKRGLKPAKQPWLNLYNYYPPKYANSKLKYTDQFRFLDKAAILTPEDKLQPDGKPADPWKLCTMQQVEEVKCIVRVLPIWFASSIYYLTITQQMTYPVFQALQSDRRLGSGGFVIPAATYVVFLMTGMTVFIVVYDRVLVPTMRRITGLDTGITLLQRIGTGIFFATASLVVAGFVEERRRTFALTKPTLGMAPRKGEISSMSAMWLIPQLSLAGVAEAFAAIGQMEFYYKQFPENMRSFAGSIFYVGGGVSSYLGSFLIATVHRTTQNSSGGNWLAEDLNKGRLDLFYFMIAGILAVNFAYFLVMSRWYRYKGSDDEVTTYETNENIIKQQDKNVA
In words: Uptake of C14-labeled pOHBG in AtGTR2 expressing oocytes in presence of excess competitor. As to conditions: 50× excess unlabeled competitor, AtGTR2, pH 5. The format is cell-based. Here is the method:
FIG. 3: Biochemical analysis of AtGTR1 and 2 mediated GSL transport in Xenopus oocytes. A and B, pH dependence of AtGTR-mediated GSL transport. A, AtGTR2 mediated 4-MTB uptake measured by LC-MS analysis of oocyte extracts, n=3 oocytes. B, AtGTR1 currents induced by 1 mM 4-MTB were measured at different membrane potentials at pH 5 ([…]), pH 6 (♦), and pH 7 (▴). Currents were normalized to the current induced at pH 5 at −60 mV, error bars are SD, n=4 oocytes. C and D, kinetic analysis of AtGTR-mediated glucosinolate transport. […]
The substrate specificity investigations were extended to include substrates previously identified for the NRT/PTR transporter family namely di- and tripeptides and nitrate. […] However, perfusing with 1 mM NO3^− did result in currents but these amounted only to 1/10th of currents measured when perfusing with 100 μM 4-MTB (FIG. 3F). […]
For assays with radiolabeled substrates, single oocytes were ruptured in 100 μl 10% SDS in 4 ml scintillation vials by shaking for 20-30 minutes. 2.5 ml EcoScint™ scintillation fluid (National Diagnostics) was added, and imported compounds quantified by scintillation counting. For assays with unlabeled substrates, oocyte extracts were analysed by LC-MS. Oocytes were analyzed in batches of 5 oocytes per repetition. […]

Regarding `CSCCCC/C(=N/OS(=O)(=O)O)S[C@@H]1O[C@H](CO)[C@@H](O)[C@H](O)[C@H]1O` [4-MTB, 4-methylthiobutyl glucosinolate], the “effect on uptake of 40 μM C14-labeled pOHBG” value is given as “reduced the uptake of pOHBG to background levels”.
